The values below come from paper PMC6470840 (International Journal of Molecular Sciences, 2019).

“Also recorded” adds a separate entry of the source.

Data set [1] relates to T2DM mice. Description: T2DM mouse model: pancreas islet histology (H&E). It is filed as in vivo, C57BL/6J mice. Particulars: DhHP-6 60 mg/kg or metformin 250 mg/kg oral, four weeks. Here is the method: (§1) At the end of the experiment, the liver and pancreas islets were immediately removed after the mice were sacrificed. The left lobe of the liver was stored at −80 °C and the right lobe of the liver was fixed in 4% paraformaldehyde (Solarbio & Technology Co., Ltd., Beijing, China). After dehydration in a gradient of ethanol concentrations, tissues were paraffin embedded and cut into 5 μm thick sections. Slices were stained with hematoxylin and eosin (H&E) dyes, and sections were mounted in neutral deparaffinized xylene medium for microscopic examination using an Olympus BX53 fluorescence microscope (Olympus, Tokyo, Japan).

Data set [2] has as its system T2DM mice. The data set can be described thus: T2DM mouse model: liver histology (H&E). The data set is classed as in vivo, C57BL/6J mice. The note with it: DhHP-6 60 mg/kg or metformin 250 mg/kg oral, four weeks. Here is the method: as §1
How the values of data set [3] were obtained: As a peroxidase mimetic, the enzymatic potency of the digestion products of DhHP-6 were assessed using the H2O2–Vitamin C (Vc) double-substrate method. Digestion products of DhHP-6 were diluted to 10 μM. Samples containing no enzyme were used as a control. The reaction system consisted of phosphate buffer solution (PBS) (50 mM, pH 7.4), H2O2 (1 mM), Vc ([…]), and 10 μM DhHP-6. All samples were assayed at 25 °C. The decrease in the absorbance at 290 nm was measured for 30 s by UV–Vis spectrophotometer (Shimadzu, Kyoto, Japan), and measurements were performed prior to the addition of the digestion products and set as 100% relative enzymatic activity.

Data set [4] in a line: simulated gastric fluid (SGF), pH 1.2, prepared in accordance with the US Pharmacopeia. Particulars: 37 °C, up to 120 min.
A short description of data set [5]: simulated intestinal fluid (SIF), pH 6.8 ± 0.1, prepared in accordance with the US Pharmacopeia. Particulars: 37 °C, up to 120 min.
Data set [6] can be described thus: blood samples of rats after intravenous injection or intragastric administration. The note with it: male Wistar rats, up to 12 h.
Data set [7] is described as follows: human plasma. The note with it: 37 °C, up to seven days.
For data set [8], the system named is T2DM rats. Further details: method as in PMID 24946264. The note with it: injected (intraperitoneal injection); cited from earlier work. From the text:
DhHP-6 (Deuterohemin-βAla-His-Thr-Val-Glu-Lys) was designed based on the microperoxidase-11 (MP-11), generated through […]. […] When ...

As for `CN(C)C(=N)N=C(N)N` [metformin, reference compound], in data set [1], the “pancreas islet histology, high dose / metformin” value was “the islets and vacuolar degeneration improved”. Further, the “liver histology, high dose / metformin” value in data set [2] is “lower levels of steatosis were evident and the liver cells became more regular than T2DM mice”.

As to Deuterohemin-βAla-His-Thr [DhHP-3], the “relative enzyme activity of the plasma degradation product” value in data set [3] is “retained the relative enzyme activity of DhHP-6”.

Deuterohemin-βAla-His-Thr-Val-Glu-Lys: the fragment found result in data set [4] was “DhHP-5 (Deuterohemin-βAla-His-Thr-Val-Glu), major”; in data set [5], “DhHP-5; also recorded: DhHP-2 (Deuterohemin-βAla-His)”; in data set [6], “DhHP-3, major”; in data set [7], “DhHP-3 (Deuterohemin-βAla-His-Thr), major”.

Regarding “deuterohemin-Ala-His-Lys [DhHP-3 (deuterohemin-Ala-His-Lys)]”, the “symptoms of T2DM rats” value in data set [8] is “improves the symptoms of T2DM rats”.
